From patent publication US20150209342A1, “TOPICAL RETINOID FORMULATIONS, PROCESSES FOR MAKING AND METHODS OF USE” (Allergan, Inc., priority 2014, published 2015)
Values after ≈ are worked out from the molar mass of the structure shown.

Test: Tazarotene solubility in water, glycerin, and 70% glycerin solution
Type: physicochemical

Q: Which solubility (70% glycerin solution, aqueous with cosolvent or surfactant or cyclodextrin, 70% Glycerin, 5 °C) does the source give for CCOC(=O)c1ccc(C#Cc2ccc3c(c2)C(C)(C)CCS3)nc1 [Tazarotene] here?
A: 0.27 µg/mL (≈ 0.768 µM)

Q: What about the solubility (70% glycerin solution, aqueous with cosolvent or surfactant or cyclodextrin, 70% Glycerin, 25 °C) of the same compound?
A: 0.68 µg/mL (≈ 1.93 µM)

Q: And the solubility (70% glycerin solution, aqueous with cosolvent or surfactant or cyclodextrin, 70% Glycerin, 40 °C)?
A: 4.43 µg/mL (≈ 12.6 µM)

Q: What about the solubility (glycerin, 5 °C, organic solvent or mixture) of the same compound?
A: 72.6 µg/mL (≈ 207 µM)

Q: And the solubility (glycerin, 25 °C, organic solvent or mixture)?
A: 34.7 µg/mL (≈ 98.7 µM)

Q: And the solubility (glycerin, 40 °C, organic solvent or mixture)?
A: 527 µg/mL (≈ 1500 µM)

Q: What about the “solubility of tazarotene in glycerin” value (in words) of the same compound?
A: low solubility

Q: And the solubility (water, 5 °C)?
A: 0.07 µg/mL (≈ 0.199 µM)

Q: And the solubility (water, 25 °C)?
A: 0.04 µg/mL (≈ 0.114 µM)

Q: What about the solubility (water, 40 °C) of the same compound?
A: 1.7 µg/mL (≈ 4.84 µM)
